From paper PMC6537213, “Ellagic acid microspheres restrict the growth of Babesia and Theileria in vitro and Babesia microti in vivo” (Parasites & Vectors, 2019)

Tests used:
[1] = test system: B. bigemina (Argentina strain); experiment: in vitro growth inhibition assay (SYBR Green I fluorescence), single drug and 1:1 combination; type: cell-based, Babesia bigemina
Procedure: (§1) A microaerophilic stationary-phase culture system was used to maintain Babesia parasite cultures for a long time. Briefly, B. caballi (USDA strain) was grown using equine red blood cells (RBCs) in GIT medium supplemented with 40% equine serum. Theileria equi (USDA strain) was grown in equine RBCs in Medium 199 (M199; Sigma-Aldrich, Tokyo) supplemented with 40% equine serum, and hypoxanthine (MP Biomedicals, Santa Ana, CA, USA) at a final concentration of 13.6 μg/ml was used as a vital supplement. Babesia bovis (Texas strain) and B. bigemina (Argentina strain) were grown in bovine RBCs in M199 medium supplemented with 40% bovine serum. Meanwhile, B. divergens (Germany strain) was grown in bovine RBCs in medium RPMI 1640 (Sigma-Aldrich, Tokyo) supplemented with 40% bovine serum. All media included 60 U/ml penicillin G, 60 μg/ml streptomycin and 0.15 μg/ml amphotericin B (Sigma-Aldrich, St. Louis, MO, USA) to prevent bacterial contamination. The cultures were incubated at 37 °C in a humidified chamber with an atmosphere of 5% CO2, 5% O2 and 90% N2. Babesia microti (Munich strain) was recovered from − 80 °C stock, intraperitoneally injected in two 8-week old female BALB/c mice (Clea Japan, Tokyo, Japan), and the parasitemia was monitored every 2 days. The mice were euthanized using an anesthesia system containing isoflurane after parasitemia reached approximately 30%, and blood was collected by cardiac puncture to initiate the in vivo experiment. The animal experiment was conducted in accordance with the Regulations for Animal Experiments of Obihiro University of Agriculture and Veterinary Medicine, Japan (animal experiment accession number: 290168).
(§2) Assays were performed in accordance with the previously described protocol. Briefly, B. bovis, B. bigemina, B. divergens, B. caballi and T. equi cultures were harvested and adjusted to 1% parasitemia with fresh RBCs to start the inhibition assay. The assays were carried out using 96-well microtiter plates where only the 60 inner wells were used, while the peripheral wells were filled with sterile distillate water to reduce evaporation during incubation. In five 96-well plates, a volume of 2.5 µl each of B. bigemina- and B. bovis-iRBCs and 5 µl each of B. divergens-, B. caballi- and T. equi-iRBCs were added to each well in triplicate and mixed with a culture medium containing the drug concentrations to a total volume of 100 µl. Various concentrations of EA, β-CD EA, APSP EA, DA, CF and AQ were dissolved in a culture medium using two-fold dilution. Wells containing DMSO at a final concentration of 0.4% and iRBCs were used as a positive control, while wells with non-infected RBCs and culture medium were used as a negative control. Additionally, a drug combination assay was performed in parallel with the single drug assay at a constant ratio of 1:1, as described previously. […] The plates were incubated in a humidified incubator with 5% CO2, 5% O2 and 90% N2 for 4 days without changing the medium. On day 4, 100 µl of a lysis buffer containing 2 × SG1 was added to each well. The plates were wrapped with aluminum foil to avoid direct light exposure and incubated at room temperature. After 6 h, fluorescence values were measured using a fluorescence spectrophotometer (Fluoroskan Ascent; Thermo LabSystems, Oceanside, CA, USA) with excitation and emission wavelengths of 485 and 518 nm, respectively. The fluorescence data were subtracted from the negative control and used to calculate the IC50. […]

B. caballi (USDA strain) = experiment: as above; type: cell-based, Babesia caballi
Procedure: as §1, §2

[2] = test system: human foreskin fibroblast (HFF) cell line; experiment: cytotoxicity assay (CCK-8); type: cell-based
Procedure: (§3) The MDBK cell line was maintained in 75 cm^2 culture flasks with Minimum Essential Medium Eagle (MEM; Gibco, Grand Island, NY, USA), while Dulbecco’s Modified Eagle’s Medium (DMEM; […] Each medium was supplemented with 10% fetal bovine serum, 0.5% penicillin/streptomycin (Gibco), and an additional 1% glutamine. Every 3 to 4 days, the medium was changed, and the cells were incubated until approximately 80% confluent. The cells were free from mycoplasma contamination after being checked by staining with 4,6-diamidino-2-phenylindole dihydrochloride (DAPI; Sigma-Aldrich, St. Louis). The cell detachment from the culture flask was done using TrypLE^TM Express (Gibco) after washing two times with Dulbecco’s phosphate-buffered saline (DPBS). Subsequently, viable cells were counted using a Neubauer Improved C-Chip (NanoEnTek Inc., Seoul, Korea) after staining with 0.4% trypan blue solution. The drug-exposure viability assay was performed in accordance with the recommendation for the Cell Counting Kit-8 (CCK-8; Dojindo, Kumamoto, Japan). Briefly, in a 96-well plate, 100 µl of cells at a density of 5 × 10^4 cells/ml were seeded per well and allowed to attach to the plate for 24 h at 37 °C in a humidified incubator with 5% CO2. Ten microliters of drug diluted two-fold were added to each well to a final concentration of 0.781 to 800 µM in triplicate. Wells with only a culture medium were used as blanks, while wells containing cells and a medium with 0.5% DMSO were used as positive controls. Drug exposure lasted for 24 h. After 24 h, 10 µl of CCK-8 was added, and the plate was further incubated for 3 h. Absorbance was measured at 450 nm using a microplate reader.

[3] = test system: mouse embryonic fibroblast (NIH/3T3) cell line; experiment: cytotoxicity assay (CCK-8); type: cell-based
Procedure: as §3

[4] = test system: Babesia microti (Munich strain); experiment: in vivo growth inhibition and drug combination assays in B. microti-infected BALB/c mice; details: first assay; 35 mg/kg EA i.p., 5 days; peak on day 8; DDW control 57.7%
Procedure: as §1
In vivo growth inhibition assays of EA, β-CD EA and APSP EA were performed in B. microti-infected BALB/c mice in accordance with the previous protocol in two separate trials. […] The mice in groups 2–8 were intraperitoneally (i.p.) injected with 0.5 ml of inoculum (1 × 10^7 B. microti-iRBCs). Group 1 was left uninfected and untreated as a negative control. When the average parasitemia in all mice reached 1%, drug treatment was initiated for 5 consecutive days. […] DA at a concentration of 25 mg/kg body weight (BW) was administrated i.p. to the third group as a reference drug control.

Compound: O=c1oc2c(O)c(O)cc3c(=O)oc4c(O)c(O)cc1c4c23 [EA, Ellagic acid]
- concentration that significantly inhibited the growth ([1]; B. bigemina, t-test vs control): 0.078 µM
- IC50 ([1]; Babesia bigemina, 96 h, B. bigemina in vitro culture, 4 days): 7.87 ± 5.8 µM
- concentration that significantly inhibited the growth (B. caballi (USDA strain); B. caballi, t-test vs control): 0.125 µM
- IC50 (B. caballi (USDA strain); Babesia caballi, 96 h, B. caballi in vitro culture, 4 days): 3.29 ± 0.42 µM
- Selective indices HFF ([2]; EC50 HFF / IC50 B. bigemina): > 101.3
- Selective indices HFF ([2]; EC50 HFF / IC50 B. bovis): > 83.3
- Selective indices HFF ([2]; EC50 HFF / IC50 B. divergens): > 148.1
- Selective indices HFF ([2]; EC50 HFF / IC50 T. equi): > 106.7
- EC50 ([2]; Homo sapiens, HFF cells, 24 h exposure, CCK-8): > 800 µM
- Selective indices NIH/3T3 ([3]; EC50 NIH/3T3 / IC50 B. bigemina): > 101.3
- Selective indices NIH/3T3 ([3]; EC50 NIH/3T3 / IC50 B. bovis): > 83.3
- Selective indices NIH/3T3 ([3]; EC50 NIH/3T3 / IC50 B. divergens): > 148.1
- Selective indices NIH/3T3 ([3]; EC50 NIH/3T3 / IC50 T. equi): > 106.7
- EC50 ([3]; Mus musculus, NIH3T3, NIH/3T3 cells, 24 h exposure, CCK-8): > 800 µM
- inhibition of cell viability ([3]; NIH/3T3, 800 µM): did not show any inhibition
- peak parasitemia level [4]: 29.5%
